Experimental data as given in patent US20050014788A1, “Piperidine derivatives and their use as modulators of chemokine receptor activity (especially ccr5)” (priority 2001, published 2005).
Counter-ions that a name gives are not always drawn. Like-named read-outs stand apart in the source and are kept apart here.

Molecular target: recombinant human CCR5 receptor (Homo sapiens, UniProt P51681)
Test: MIP-1α radioligand binding assay (scintillation proximity), CHO cell membranes
Settings: displacement of 0.1 nM iodinated MIP-1α, CHO membranes with recombinant human CCR5, average if tested more than once
Description: The ability of compounds to inhibit the binding of MIP-1 α was assessed by an in vitro radioligand binding assay. Membranes were prepared from Chinese hamster ovary cells which expressed the recombinant human CCR5 receptor. These membranes were incubated with 0.1 nM iodinated MIP-1α, scintillation proximity beads and various concentrations of the compounds of the invention in 96-well plates. The amount of iodinated MIP-1α bound to the receptor was determined by scintillation counting.
In Table II the results are presented as Pic50 values. […] (that is 1×10^−6 M) gives a Pic50 of 6.

[1] = negative log (base 10) of IC50 (M), read-out: Pic50 (converted)
[2] = Pic50, negative log (base 10) of IC50 (M)

recombinant human CCR5 receptor, sequence (P51681 whole entry): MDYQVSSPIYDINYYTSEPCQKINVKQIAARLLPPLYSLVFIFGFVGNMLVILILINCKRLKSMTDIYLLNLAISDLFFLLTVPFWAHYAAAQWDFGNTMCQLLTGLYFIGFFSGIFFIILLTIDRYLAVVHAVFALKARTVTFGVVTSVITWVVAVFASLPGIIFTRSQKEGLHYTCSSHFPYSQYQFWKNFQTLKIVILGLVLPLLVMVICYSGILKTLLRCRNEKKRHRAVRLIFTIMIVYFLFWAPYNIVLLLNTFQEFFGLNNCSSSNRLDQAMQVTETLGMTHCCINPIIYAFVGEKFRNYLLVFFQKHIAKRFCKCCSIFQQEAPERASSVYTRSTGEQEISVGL

IC50 [1] [M]	Compound	other results
1.17e-08	CCN(C(=O)Cc1ccc(S(C)(=O)=O)cc1)C1CCN(CCC(c2ccccc2)c2ccc(SC)cc2)CC1 (stereo not shown) [Compound No. 41, N-[1-(3-phenyl-3-[4-methanethiophenyl]propyl)-piperidin-4-yl]-N-ethyl-4-methanesulfonylphenylacetamide]	
	CCN(C(=O)Cc1ccc(S(C)(=O)=O)cc1)C1CCN(CCC(c2ccc(NC(=O)OC(C)(C)C)cc2)c2cccc(F)c2)CC1 (stereo not shown) [Compound No. 43, N-[1-(3-[3-fluorophenyl]-3-[4-Boc-aminophenyl]propyl)-piperidin-4-yl]-N-ethyl-4-methanesulfonylphenylacetamide]	Pic50 (negative log (base 10) of IC50 (M)): 7.05
1.05e-07	CCN(C(=O)Cc1ccc(S(C)(=O)=O)cc1)C1CCN(CCC(c2ccc(N)cc2)c2cccc(F)c2)CC1 (stereo not shown) [Compound No. 44, N-[1-(3-[3-fluorophenyl]-3-[4-aminophenyl]propyl)-piperidin-4-yl]-N-ethyl-4-methanesulfonylphenylacetamide hydrochloride]	
6.17e-09	CCN(C(=O)Cc1ccc(S(C)(=O)=O)cc1)C1CCN(CCC(c2ccc(NS(C)(=O)=O)cc2)c2cccc(F)c2)CC1 (stereo not shown) [Compound No. 49]	
	CCN(C(=O)Cc1ccc(S(C)(=O)=O)cc1)C1CCN(CC[C@@H](c2ccccc2)c2ccc(S(C)(=O)=O)cc2)CC1 [Compound No. 50, (S)-N-[1-{3-phenyl-3-(4-methanesulfonylphenyl)propyl}-4-piperidinyl]-N-ethyl-4 methanesulfonylphenylacetamide]	IC50 [2]: 8.13e-10 M
	CCN(C(=O)Cc1ccc(S(C)(=O)=O)cc1)C1CCN(CC[C@H](c2ccc(S(C)(=O)=O)cc2)c2ccc(F)c(F)c2)CC1 [Compound No. 54, (R)-N-[1-{3-(3,4-fluorophenyl)-3-(4-methanesulfonylphenyl)propyl}-4-piperidinyl]-N-ethyl-4-methanesulfonylphenylacetamide hydrochloride]	IC50 [2]: 2.14e-08 M
8.51e-07	CCN(C(=O)Cc1ccc(S(C)(=O)=O)cc1)C1CCN(CCC(c2ccccc2)c2ccc(NS(=O)(=O)c3ccccc3)cc2)CC1 (stereo not shown) [compound 28]	
1.32e-08	CCN(C(=O)Cc1ccc(S(C)(=O)=O)cc1)C1CCN(CCC(c2ccccc2)c2ccc(NC(=O)NC(C)C)cc2)CC1 (stereo not shown) [compound 42]	
3.63e-09	CCN(C(=O)Cc1ccc(S(C)(=O)=O)cc1)C1CCN(CCC(c2ccc(NC(C)=O)cc2)c2cccc(F)c2)CC1 (stereo not shown) [compound 45]	
9.12e-09	CCN(C(=O)Cc1ccc(S(C)(=O)=O)cc1)C1CCN(CCC(c2ccc(NS(C)(=O)=O)cc2)c2cccc(F)c2)CC1 (stereo not shown) [compound 46]	
3.47e-08	CCN(C(=O)Cc1ccc(S(C)(=O)=O)cc1)C1CCN(CCC(c2ccc(NC(=O)c3ccc(S(C)(=O)=O)cc3)cc2)c2cccc(F)c2)CC1 (stereo not shown) [compound 47]	
	CCN(C(=O)Cc1ccc(S(C)(=O)=O)cc1)C1CCN(CC[C@H](c2ccc(S(C)(=O)=O)cc2)c2cccc(F)c2)CC1 [compound 51]	IC50 [2]: 3.72e-10 M
1.38e-08	CCN(C(=O)Cc1ccc(S(C)(=O)=O)cc1)C1CCN(CCC(c2ccccc2)c2ccc([S+](C)[O-])cc2)CC1 (stereo not shown) [compound 75]	
